Source: the supplement of paper PMC6045584
± gives the standard deviation of the averaged measurements.

Tests used:
VINORELBINE = compound: CCC1=C[C@@H]2CN(C1)Cc1c([nH]c3ccccc13)[C@@](C(=O)OC)(c1cc3c(cc1OC)N(C)[C@H]1[C@@](O)(C(=O)OC)[C@H](OC(C)=O)[C@]4(CC)C=CCN5CC[C@]31[C@@H]54)C2 [VINORELBINE]; assay: surviving fraction relative to DMSO-only wells; higher = less growth inhibition; settings: exposure time: 5 days
Outline: (§1)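 Viability values are CellTiter-Glo luminescence readings, given as surviving fraction against the median of DMSO-only wells. The readings were taken after 10 minutes at room temperature, following five days of continuous exposure to inhibitors at 0.5, 1, 5, 10, 50, 100, 500 and 1000 nM that began 24 hours after log-phase tumour cell lines were seeded at 250–500 cells per well in 384-well plates. Every line was screened three times and kept only if replicate Pearson r >0.7 and median Z' >0.3.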

ETOPOSIDE = compound: COc1cc([C@@H]2c3cc4c(cc3[C@@H](O[C@@H]3O[C@@H]5CO[C@@H](C)O[C@H]5[C@H](O)[C@H]3O)[C@H]3COC(=O)[C@H]23)OCO4)cc(OC)c1O [ETOPOSIDE]; assay: as above; settings: exposure time: 5 days
Outline: as §1

Test System	surviving fraction (VINORELBINE; 0.5 nM)	surviving fraction (VINORELBINE; 1 nM)	surviving fraction (VINORELBINE; 5 nM)	surviving fraction (VINORELBINE; 10 nM)	surviving fraction (VINORELBINE; 50 nM)	surviving fraction (VINORELBINE; 100 nM)	surviving fraction (VINORELBINE; 500 nM)	surviving fraction (VINORELBINE; 1000 nM)	surviving fraction (ETOPOSIDE; 0.5 nM)	surviving fraction (ETOPOSIDE; 1 nM)	surviving fraction (ETOPOSIDE; 5 nM)	surviving fraction (ETOPOSIDE; 10 nM)	surviving fraction (ETOPOSIDE; 50 nM)	surviving fraction (ETOPOSIDE; 100 nM)	surviving fraction (ETOPOSIDE; 500 nM)	surviving fraction (ETOPOSIDE; 1000 nM)
143B BONE	1 ± 0.02	1.016 ± 0.0057	1.016 ± 0.0071	0.864 ± 0.024	0.229 ± 0.0071	0.1625 ± 0.00071	0.039 ± 0.0028	0.0345 ± 0.00071	0.981 ± 0.021	0.993	1.01 ± 0.016	1.03 ± 0.012	1.01 ± 0.012	0.979 ± 0.079	0.484 ± 0.005	0.297
HCC202 BREAST	1.25 ± 0.24	1.21 ± 0.12	0.946 ± 0.088	0.603 ± 0.14	0.383 ± 0.12	0.313 ± 0.06	0.234 ± 0.056	0.205 ± 0.033	1.08 ± 0.35	1.11 ± 0.12	1.17 ± 0.066	0.994 ± 0.18	1.14 ± 0.18	1.14 ± 0.22	0.84 ± 0.31	0.724 ± 0.13
LM7 BONE	0.973 ± 0.062	0.9683 ± 0.0047	0.757 ± 0.023	0.499 ± 0.062	0.115 ± 0.0052	0.105 ± 0.0081	0.0943 ± 0.011	0.122 ± 0.013	0.9 ± 0.14	0.941 ± 0.072	1.01 ± 0.068	1.01 ± 0.13	0.994 ± 0.12	0.953 ± 0.075	0.677 ± 0.034	0.449 ± 0.045
CAL120 BREAST	0.969 ± 0.032	0.9515 ± 0.0038	0.782 ± 0.015	0.623 ± 0.026	0.169 ± 0.017	0.157 ± 0.0098	0.154 ± 0.02	0.14 ± 0.0076	0.939 ± 0.036	0.933 ± 0.033	0.982 ± 0.016	0.973 ± 0.013	0.938 ± 0.035	0.939 ± 0.038	0.498 ± 0.1	0.356 ± 0.011
HELA CERVIX	1.05 ± 0.054	1.02 ± 0.044	1.04 ± 0.015	0.778 ± 0.043	0.145 ± 0.0031	0.0838 ± 0.0042	0.0347 ± 0.0015	0.0298 ± 0.0028	1.1 ± 0.033	1.1 ± 0.023	1.04 ± 0.031	1.04 ± 0.015	1.14 ± 0.063	1.18 ± 0.059	0.301 ± 0.044	0.182 ± 0.0037
YAMATO SYNOVIAL	1.04 ± 0.06	1.08 ± 0.042	1 ± 0.024	0.646 ± 0.05	0.391 ± 0.036	0.36 ± 0.014	0.346 ± 0.015	0.397 ± 0.0053	1.3 ± 0.12	1.32 ± 0.063	1.19 ± 0.051	1.22 ± 0.18	1.26 ± 0.018	1.11 ± 0.096	0.636 ± 0.014	0.575 ± 0.031
MHM BONE	1.01 ± 0.029	0.988 ± 0.029	1.022 ± 0.0092	1 ± 0.02	0.493 ± 0.025	0.325 ± 0.029	0.22 ± 0.013	0.195 ± 0.014	0.994 ± 0.022	0.999 ± 0.011	1.01 ± 0.021	1.001 ± 0.007	1.02 ± 0.016	1.02 ± 0.045	0.894 ± 0.018	0.784 ± 0.024
SNU475 LIVER	0.982 ± 0.019	0.998 ± 0.011	1.01 ± 0.029	1 ± 0.038	0.386 ± 0.041	0.197 ± 0.021	0.17 ± 0.019	0.204 ± 0.032	1.02 ± 0.05	0.999 ± 0.11	1 ± 0.039	1.03 ± 0.042	0.9937 ± 0.0049	0.957 ± 0.066	0.835 ± 0.042	0.571 ± 0.062
